Data as given in patent US6864251B2, “Treatment of LTB4-mediated inflammatory disorders with optically-pure (R)-2,3-benzodiazepines” (Vela Pharmaceuticals, Inc., priority 2002, dated 2005).

What was measured:
peripheral BZ receptors = peripheral BZ receptors (Homo sapiens, UniProt P30536); details: cited from earlier work
DSS-induced colitis = experiment: Dextran sulfate sodium induced colitis: mouse model of inflammatory bowel disease; type: in vivo, Swiss Webster mice; details: for Mean colon length CM ± SEM / Mean weight ± SEM, Day 0 / % weight change ± SEM, Day 8 / Mean weight ± SEM, Day 8 / % weight change ± SEM, Day 9 / Mean weight ± SEM, Day 9 / % weight change ± SEM, Day 10 / Mean weight ± SEM, Day 10 / Mean DAI* ± SEM / inhibition at 16 mg/kg / inhibition at 32 mg/kg / inhibition at 64 mg/kg / % of normal length: DSS 5%; for Mean DAI ± SEM: DSS 5% in tap water; for Mean DAI* ± SEM: DAI without weight loss parameter; for inhibition at 16 mg/kg / inhibition at 32 mg/kg / inhibition at 64 mg/kg: Mus musculus, read-out: Colon shortening inhib. %; for % of normal length: colon length
Protocol: In this model of colitis, an acute inflammation of the colon was produced by administration of dextran sulfate sodium (DSS) as a 5% solution in tap water. This colitis was characterized by histological events and an influx of neutrophils, macrophages and mediators of inflammation similar to those observed with human inflammatory bowel diseases. […] The following study was conducted in accordance with protocols of Okayasu et al., Gastroenterology, 98:694-702, 1990.
One hundred ten test animals (female, 6 week old Swiss Webster mice, 18-30 g) were divided into ten groups, selected to eliminate any statistical differences in mean group weight.
Each animal was dosed daily (IP) with either a test substance or vehicle, starting on Day 0. Beginning on Day 1, acute colon inflammation was induced by the administration ad libitum in drinking water of dextran sulfate sodium (DSS) as a 5% solution in tap water (10 mL/mouse/day for 5-6 days), with no other fluid source for animals in the DSS arm of the study. Filtered tap water was available ad libitum except for animals receiving 5% DSS as the sole source of fluid. After four days, signs of acute disease occured with the loss of weight, diarrhea and bloody stools. Histological changes included initial shortening of the crypts, then areas of separation of the crypts and the muscularis mucosae in the absence of destructive inflammatory filtrate. After five days, pathological changes became confluent with the appearance of erosions and early hyperplastic epithelium. Inflammation scores were high with neutrophils, lymphocytes, and plasma cells in the lamina propria but sparing the epithelium.
Test compounds were administered intraperitoneally (IP). Test compounds given during this period were evaluated for prophylactic activity and test compounds given after the disease state was established were evaluated for therapeutic activity.
Test animals were weighed daily from Day 0 to Day 8, or until completion of the study. The total duration of the study with DSS arm of the study was varied depending on the time progress of colitis. The condition of the test animals and consistency of stools was noted.
At the conclusion of the study, test animals were euthanized (CO2), a midline incision was made and a stool sample was obtained. The sample was placed on a slide and tested for occult blood (Quic-Cult™, Laboratory Diagnostics Co., Morganville, N.J.). Occult blood was determined by placing two drops of the reagent onto the sample and observing any color change. Occult blood presence was graded using a scoring protocol assigning a score of 0 for no color; 1 for a very light blue color (+/−) forming in >30 seconds; 2 for a blue color developing in 30 seconds or more (+); 3 for a change in color occurring in less than 30 seconds (++); and 4 for gross blood observable on the slide. The colon was gently stretched and the length from the colon-cecal junction to the end of the distal rectum was measured to the nearest 0.1 cm.
The scores for each test animal were added and then divided by three to give a DAI score for each animal.

IL-2 production = details: in vitro; cited from earlier work
central BZ receptors = details: cited from earlier work
lymphocyte = details: in vitro; cited from earlier work

Sequence of peripheral BZ receptors (P30536 whole entry): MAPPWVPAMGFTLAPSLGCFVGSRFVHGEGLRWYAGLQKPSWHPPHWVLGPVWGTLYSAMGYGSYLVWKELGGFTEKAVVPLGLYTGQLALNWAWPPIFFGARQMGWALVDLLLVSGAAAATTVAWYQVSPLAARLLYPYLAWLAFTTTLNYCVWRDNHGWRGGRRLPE

SMILES | Mean colon length CM ± SEM (DSS-induced colitis; 16 mg/kg IP daily) | Mean DAI ± SEM (DSS-induced colitis; 16 mg/kg IP daily) | Mean weight ± SEM, Day 0 (DSS-induced colitis; 16 mg/kg IP daily) | % weight change ± SEM, Day 8 (DSS-induced colitis; 16 mg/kg IP daily) | Mean weight ± SEM, Day 8 (DSS-induced colitis; 16 mg/kg IP daily) | % weight change ± SEM, Day 9 (DSS-induced colitis; 16 mg/kg IP daily) | Mean weight ± SEM, Day 9 (DSS-induced colitis; 16 mg/kg IP daily) | % weight change ± SEM, Day 10 (DSS-induced colitis; 16 mg/kg IP daily) | Mean weight ± SEM, Day 10 (DSS-induced colitis; 16 mg/kg IP daily) | Mean colon length CM ± SEM (DSS-induced colitis; 32 mg/kg IP daily) | Mean DAI ± SEM (DSS-induced colitis; 32 mg/kg IP daily) | Mean weight ± SEM, Day 0 (DSS-induced colitis; 32 mg/kg IP daily) | % weight change ± SEM, Day 8 (DSS-induced colitis; 32 mg/kg IP daily) | Mean weight ± SEM, Day 8 (DSS-induced colitis; 32 mg/kg IP daily) | % weight change ± SEM, Day 9 (DSS-induced colitis; 32 mg/kg IP daily) | Mean weight ± SEM, Day 9 (DSS-induced colitis; 32 mg/kg IP daily) | % weight change ± SEM, Day 10 (DSS-induced colitis; 32 mg/kg IP daily) | Mean weight ± SEM, Day 10 (DSS-induced colitis; 32 mg/kg IP daily) | Mean colon length CM ± SEM (DSS-induced colitis; 64 mg/kg IP daily) | Mean DAI ± SEM (DSS-induced colitis; 64 mg/kg IP daily) | other results
CCC1C(C)=NN=C(c2ccc(OC)c(OC)c2)c2cc(OC)c(OC)cc21 (racemic) [Racemic tofisopam, Racemic-1-(3,4-dimethoxyphenyl)-4-methyl-5-ethyl-7,8-dimethoxy-5H-2,3-benzodiazepine] | 8.2 ± 0.32 CM | 2.59 ± 0.27 | 25.9 ± 0.4 g | 3.1 ± 1.5% | 25.1 ± 0.6 g | 7.4 ± 2.5% | 24.0 ± 0.8 g | 13.3 ± 3.1% | 22.5 ± 1.0 g | 8.3 ± 0.11 CM | 2.37 ± 0.33 | 26.1 ± 0.4 g | 1.8 ± 1.5% | 25.6 ± 0.4 g | 5.3 ± 2.0% | 24.7 ± 0.6 g | 8.0 ± 2.4% | 24.0 ± 0.7 g | 8.2 ± 0.18 CM | 2.87 ± 0.31 | Binding to peripheral BZ receptors (peripheral BZ receptors): binds only weakly; Mean weight ± SEM, Day 0 (DSS-induced colitis; 64 mg/kg IP daily): 25.8 ± 0.3 g; % weight change ± SEM, Day 8 (DSS-induced colitis; 64 mg/kg IP daily): 1.2 ± 2.1%; Mean weight ± SEM, Day 8 (DSS-induced colitis; 64 mg/kg IP daily): 25.5 ± 0.7 g; % weight change ± SEM, Day 9 (DSS-induced colitis; 64 mg/kg IP daily): 5.1 ± 2.5%; Mean weight ± SEM, Day 9 (DSS-induced colitis; 64 mg/kg IP daily): 24.5 ± 0.8 g; % weight change ± SEM, Day 10 (DSS-induced colitis; 64 mg/kg IP daily): 8.9 ± 3.1%; Mean weight ± SEM, Day 10 (DSS-induced colitis; 64 mg/kg IP daily): 23.5 ± 0.9 g; Mean DAI* ± SEM (DSS-induced colitis; 16 mg/kg IP daily): 2.61 ± 0.30; Mean DAI* ± SEM (DSS-induced colitis; 32 mg/kg IP daily): 2.65 ± 0.28; Mean DAI* ± SEM (DSS-induced colitis; 64 mg/kg IP daily): 3.25 ± 0.26; inhibition at 16 mg/kg (DSS-induced colitis; 16 mg/kg IP daily): 7%; inhibition at 32 mg/kg (DSS-induced colitis; 32 mg/kg IP daily): 9%; inhibition at 64 mg/kg (DSS-induced colitis; 64 mg/kg IP daily): 7%; % of normal length (DSS-induced colitis; 16 mg/kg IP daily): 65.4%; % of normal length (DSS-induced colitis; 32 mg/kg IP daily): 66.7%; % of normal length (DSS-induced colitis; 64 mg/kg IP daily): 65.5%; IL-2 production (IL-2 production): enhances; Interaction with central BZ receptors (central BZ receptors): does not interact; Mitogen-induced lymphocyte proliferation (lymphocyte): enhances
CC[C@H]1C(C)=NN=C(c2ccc(OC)c(OC)c2)c2cc(OC)c(OC)cc21 [(R)-tofisopam, (R)-1-(3,4-dimethoxyphenyl)-4-methyl-5-ethyl-7,8-dimethoxy-5H-2,3-benzodiazepine] | 9.0 ± 0.28 CM | 2.22 ± 0.34 | 26.1 ± 0.5 g | 0.0 ± 1.4% | 26.1 ± 0.6 g | 3.3 ± 1.8% | 25.2 ± 0.6 g | 5.4 ± 3.4% | 24.7 ± 1.0 g | 8.9 ± 0.41 CM | 2.33 ± 0.28 | 25.0 ± 0.4 g | 0.8 ± 1.6% | 26.2 ± 0.4 g | 1.9 ± 2.1% | 25.5 ± 0.6 g | 4.4 ± 2.1% | 24.6 ± 0.6 g | 9.8 ± 0.35 CM | 1.73 ± 0.27^1 | Protection from the LTB4-mediated inflammatory responses to DSS-induced colitis (DSS-induced colitis; 64 mg per kg, based on colon length and DAI): significant protection; Mean weight ± SEM, Day 0 (DSS-induced colitis; 64 mg/kg IP daily): 26.2 ± 0.5 g; % weight change ± SEM, Day 8 (DSS-induced colitis; 64 mg/kg IP daily): 0.1 ± 1.9%; Mean weight ± SEM, Day 8 (DSS-induced colitis; 64 mg/kg IP daily): 26.2 ± 0.5 g; % weight change ± SEM, Day 9 (DSS-induced colitis; 64 mg/kg IP daily): 2.9 ± 1.9%; Mean weight ± SEM, Day 9 (DSS-induced colitis; 64 mg/kg IP daily): 25.4 ± 0.5 g; % weight change ± SEM, Day 10 (DSS-induced colitis; 64 mg/kg IP daily): 2.8 ± 2.5%; Mean weight ± SEM, Day 10 (DSS-induced colitis; 64 mg/kg IP daily): 25.4 ± 0.5 g; Mean DAI* ± SEM (DSS-induced colitis; 16 mg/kg IP daily): 2.61 ± 0.37; Mean DAI* ± SEM (DSS-induced colitis; 32 mg/kg IP daily): 2.75 ± 0.26; Mean DAI* ± SEM (DSS-induced colitis; 64 mg/kg IP daily): 2.20 ± 0.26^1; inhibition at 16 mg/kg (DSS-induced colitis; 16 mg/kg IP daily): 24%; inhibition at 32 mg/kg (DSS-induced colitis; 32 mg/kg IP daily): 22%; inhibition at 64 mg/kg (DSS-induced colitis; 64 mg/kg IP daily): 41%; % of normal length (DSS-induced colitis; 16 mg/kg IP daily): 72.4%; % of normal length (DSS-induced colitis; 32 mg/kg IP daily): 71.3%; % of normal length (DSS-induced colitis; 64 mg/kg IP daily): 78.5%
CC[C@@H]1C(C)=NN=C(c2ccc(OC)c(OC)c2)c2cc(OC)c(OC)cc21 [(S)-tofisopam, (S)-1-(3,4-dimethoxyphenyl)-4-methyl-5-ethyl-7,8-dimethoxy-5H-2,3-benzodiazepine] | 8.4 ± 0.19 CM | 2.37 ± 0.24 | 26.0 ± 0.4 g | 0.0 ± 1.5% | 26.0 ± 0.5 g | 1.5 ± 1.5% | 25.6 ± 0.5 g | 5.4 ± 1.6% | 24.6 ± 0.6 g | 8.1 ± 0.19 CM | 3.07 ± 0.25 | 25.9 ± 0.4 g | 3.0 ± 0.6% | 25.1 ± 0.6 g | 4.9 ± 2.4% | 24.6 ± 0.6 g | 10.4 ± 3.2% | 23.2 ± 0.9 g | 8.2 ± 0.20 CM | 2.78 ± 0.27 | Mean weight ± SEM, Day 0 (DSS-induced colitis; 64 mg/kg IP daily): 25.9 ± 0.4 g; % weight change ± SEM, Day 8 (DSS-induced colitis; 64 mg/kg IP daily): 1.2 ± 1.5%; Mean weight ± SEM, Day 8 (DSS-induced colitis; 64 mg/kg IP daily): 25.8 ± 0.6 g; % weight change ± SEM, Day 9 (DSS-induced colitis; 64 mg/kg IP daily): 6.9 ± 1.8%; Mean weight ± SEM, Day 9 (DSS-induced colitis; 64 mg/kg IP daily): 24.1 ± 0.5 g; % weight change ± SEM, Day 10 (DSS-induced colitis; 64 mg/kg IP daily): 10.4 ± 1.7%; Mean weight ± SEM, Day 10 (DSS-induced colitis; 64 mg/kg IP daily): 23.2 ± 0.6 g; Mean DAI* ± SEM (DSS-induced colitis; 16 mg/kg IP daily): 2.85 ± 0.18; Mean DAI* ± SEM (DSS-induced colitis; 32 mg/kg IP daily): 3.60 ± 0.30; Mean DAI* ± SEM (DSS-induced colitis; 64 mg/kg IP daily): 2.94 ± 0.24; inhibition at 16 mg/kg (DSS-induced colitis; 16 mg/kg IP daily): 11%; inhibition at 32 mg/kg (DSS-induced colitis; 32 mg/kg IP daily): 4%; inhibition at 64 mg/kg (DSS-induced colitis; 64 mg/kg IP daily): 7%; % of normal length (DSS-induced colitis; 16 mg/kg IP daily): 67.3%; % of normal length (DSS-induced colitis; 32 mg/kg IP daily): 64.9%; % of normal length (DSS-induced colitis; 64 mg/kg IP daily): 65.4%
